Experimental findings from PMC10602174, “Simultaneous Inhibition of PI3K and PAK in Preclinical Models of Neurofibromatosis Type 2-related Schwannomatosis” (Research Square, 2023) are described below.

By viability is commonly meant the share of living cells, or the viability signal relative to a control. For orientation: EC50 means the concentration that produces a half-maximal response.

The subject of one data set is HS01 cells. Kind of data set: Incucyte live cell imaging, confluence and cleaved caspase 3/7. The format is cell-based, human. The conditions noted are these: HS01, 72h time course. The method, then:
Human HS11, HS01, HS02, HS13 and HS05 and mouse MTC-10 cells (1,000 cells/well) were seeded in growth medium in three replicate wells/condition of a 384-well CellBIND Corning plate. […] Wells were imaged using the Incucyte® S5 Live-Cell Analysis system (Sartorius) for 24–72h. Phase and green fluorescent images were collected every 2h and analyzed using the integrated basic analyzer software.

Data set [1] in a line: Pharmacokinetic study, plasma and sciatic nerve after single oral gavage. The data set is classed as in vivo, NSG mice. An excerpt:
The UCF animal facility is accredited by the Association for Assessment and Accreditation of Laboratory Animal Care. A total of 50 six- to eight-week-old mice were used for pharmacokinetic studies. […] Drugs were delivered via 0.5% methylcellulose, 0.2% Tween 80, 10% DMSO vehicle. Ten mice (three per drug and one control receiving vehicle alone) were used at each time point. Collected samples were frozen and sent to Cyprotex (Watertown, MA, USA) for LC-MS/MS quantitation of drug levels. Pharmacokinetic calculations were performed using the PKSolver software. The plasma half-life (t½) was calculated as the time required to reduce by half the plasma concentration after reaching pseudo-equilibrium and is not the time required to eliminate half the administered dose. An additional LC-MS/MS analyses of a subset of the treated mice (see below) was conducted. […] Three mice from each treatment group were selected randomly at the end of the in vivo study to assess the levels of drug in plasma, intact control nerve, and tumor. Samples were collected 4h after the final oral gavage, frozen, and sent to Cyprotex for analysis.

The next data set relates to HS01 cells (human MD-SC). Briefly: Cell viability (CellTiter-Fluor) and Combenefit synergy, 10x10 matrix. The data set is classed as cell-based. Particulars: HS01 72h, read-out: % Control cell viability. On the procedure:
(§1) Drugs used in this study are listed with their targets in Table S1. All drugs were obtained from SelleckChem (Houston, TX, USA), apart from (−)-B-Hydrastine (Santa Cruz Biotechnology, Dallas, TX, USA). Drugs were dissolved in DMSO (10 mM stock). MD-SCs were seeded in 384-well CellBind Corning plates at 1000 cells/well in phenol red-free media. After attachment, cells were treated with drugs at 10 concentrations in a 10×10 matrix. Mouse cells were treated for 48h and human cells for 72h prior to assessment of cell viability with CellTiter-Fluor Assay (Promega, Madison, WI, USA). All drugs were tested in at least two human MD-SC lines. Follow up testing was performed on a subset of combinations using the mouse MD-SC line. Matrix combination data was uploaded into the Combenefit software system to assess drug synergy using three methods (Loewe, Bliss, and HSA)([18]).

Another data set deals with HS03 cells (human MD-SC). The data set is described as above. The data set is classed as cell-based. The conditions noted are these: HS03 72h, read-out: % Control cell viability. The method, then: as §1
The next data set deals with MS01 cells (mouse MD-SC). Described as above. The format is cell-based. Particulars: MS01 48h, read-out: % Control cell viability. The method, then:
as §1

The subject of data set [2] is MS01-Luc allografts (mouse MD-SCs). Briefly: Immunohistochemistry of allograft tumors. The data set is classed as in vivo, NSG mice. The conditions noted are these: tumors after 14 days of treatment, n = 4/group.
Data set [3] can be described thus: Drug levels in plasma, control nerve and tumor at end of in vivo study. Set-up: species or system NSG mice. The conditions noted are these: 4h after final oral gavage, 14 days of daily treatment. An excerpt: Male and female NOD.Cg-Prkdcscid Il2rgtm1Wjl/SzJ (NSG) mice were bred in house and all care and use was approved by the University of Central Florida (UCF) Institutional Animal Care and Usage Committee (IACUC; #19 – 05, approved 04/08/2019). The UCF animal facility is accredited by the Association for Assessment and Accreditation of Laboratory Animal Care. A total of 50 six- to eight-week-old mice were used for pharmacokinetic studies. […] Drugs were delivered via 0.5% methylcellulose, 0.2% Tween 80, 10% DMSO vehicle. Ten mice (three per drug and one control receiving vehicle alone) were used at each time point. Collected samples were frozen and sent to Cyprotex (Watertown, MA, USA) for LC-MS/MS quantitation of drug levels. Pharmacokinetic calculations were performed using the PKSolver software. The plasma half-life (t½) was calculated as the time required to reduce by half the plasma concentration after reaching pseudo-equilibrium and is not the time required to eliminate half the administered dose. An additional LC-MS/MS analyses of a subset of the treated mice (see below) was conducted. This was done to determine whether PF-3758309 was accessible to the tumor neo-vasculature that can differ from that of the organ/tissue housing the tumor. […]

For another data set, the system named is human MD-SCs. Briefly: Cell viability of MD-SC lines, monotherapy EC50 and combination synergy. The format is cell-based. The method, then: as §1

As to `COc1ccc(-c2nc(N3CCOCC3)c3sc(CN(C)c4ncc(C(=O)NO)cn4)cc3n2)cn1` [CUDC907], the “cleaved caspase 3/7 (CC3/7) signal” value with HS01 cells is on record as “high CC-3/7 signal starting at 14h”.

As to `Cc1nc(Nc2n[nH]c3c2CN(C(=O)N[C@H](CN(C)C)c2ccccc2)C3(C)C)c2sccc2n1` [PF-3758309], the “half-life in plasma, together with pictilisib versus alone” value in data set [1] (PF-3758309 25 mg/kg oral) is given as “similar”. Also, the “maximum concentration in plasma” value worked out at 110 ng/mL in data set [1] (PF-3758309 25 mg/kg oral, alone) and 341 ng/mL in data set [1] (PF-3758309 25 mg/kg oral, co-administered with pictilisib 75 mg/kg). Besides, the Tmax in data set [1] (both sexes, NOD.Cg-Prkdcscid Il2rgtm1Wjl/SzJ (NSG), mouse, plasma, po, read-out: time of maximum plasma concentration) worked out at 2 h. Besides, the “detection in normal nerve” value in data set [1] (co-administered with pictilisib) was “remained undetected in normal nerve”. The “penetration of blood-nerve barrier / detection in intact nerve” value in data set [1] (single agent, single oral gavage) was “not detected in the intact nerve”. Also, the viability at 0.03906 µM was 71% in the data set on HS01 cells (human MD-SC) (single drug 39.06 nM), 72% in the data set on HS03 cells (human MD-SC) (single drug 39.06 nM) and 61% in the data set on MS01 cells (mouse MD-SC) (single drug 39.06 nM). The viability at 0.07813 µM in the data set with HS01 cells (human MD-SC) (single drug 78.13 nM) is 66%; in the data set with HS03 cells (human MD-SC) (single drug 78.13 nM) it was 67%; in the data set on MS01 cells (mouse MD-SC) (single drug 78.13 nM) it was 57%. Also, the viability at 0.15625 µM amounted to 67% in the data set on HS01 cells (human MD-SC) (single drug 156.25 nM), 63% in the data set on HS03 cells (human MD-SC) (single drug 156.25 nM) and 50% in the data set with MS01 cells (mouse MD-SC) (single drug 156.25 nM). Also, the results for the viability at 0.3125 µM in the data set on HS01 cells (human MD-SC) (single drug 312.5 nM), in the data set with HS03 cells (human MD-SC) (single drug 312.5 nM) and in the data set with MS01 cells (mouse MD-SC) (single drug 312.5 nM) were 65%, 64% and 48%, respectively. In addition, the viability at 0.625 µM came out at 65% with HS01 cells (human MD-SC) (single drug 625 nM), 62% with HS03 cells (human MD-SC) (single drug 625 nM) and 43% in the data set with MS01 cells (mouse MD-SC) (single drug 625 nM). The viability at 1.25 µM worked out at 67% in the data set with HS01 cells (human MD-SC) (single drug 1250 nM), 59% with HS03 cells (human MD-SC) (single drug 1250 nM) and 40% with MS01 cells (mouse MD-SC) (single drug 1250 nM). For the same molecule, the viability at 2.5 µM with HS01 cells (human MD-SC) (single drug 2500 nM) was 59%; in the data set on HS03 cells (human MD-SC) (single drug 2500 nM), 56%; in the data set with MS01 cells (mouse MD-SC) (single drug 2500 nM), 35%. In addition, the results for the viability at 5 µM in the data set on HS01 cells (human MD-SC) (single drug 5000 nM), with HS03 cells (human MD-SC) (single drug 5000 nM) and in the data set with MS01 cells (mouse MD-SC) (single drug 5000 nM) were 40%, 44% and 24%, respectively. In addition, the viability at 10 µM was 21% with HS01 cells (human MD-SC) (single drug 10000 nM), 23% in the data set with HS03 cells (human MD-SC) (single drug 10000 nM) and 7% in the data set on MS01 cells (mouse MD-SC) (single drug 10000 nM). Besides, the “Ki67 staining (cell proliferation)” value in data set [2] is listed as “significantly decreased cell proliferation”. Moreover, the YAP staining reduction entry in data set [2] is reported as “statistically significant”. In data set [3], the drug in tumor result is on record as “bioavailable in the tumor”.

`COc1ncc(-c2ccc3nccc(-c4ccnnc4)c3c2)cc1NS(=O)(=O)c1ccc(F)cc1F` [omipalisib]: the EC50 in the data set on human MD-SCs was 2 nM.
